According to patent US20180207228A1, “PEPTIDE COMBINATIONS AND USES THEREOF FOR TREATING GRASS ALLERGY” (ALK-Abelló A/S, priority 2015, published 2018):

Key:
[1] = test system: grass pollen allergic donor derived T cell lines; assay: Dose response titration in T cell proliferation assay; assay type: cell-based, human
Protocol: The dose-response relationship was tested by measuring the percentage of donor response (i.e. the percentage of donor coverage) in concentrations of 2.0, 0.1, 0.005 and 0.00025 μg/ml for the peptide combinations and in concentrations of 2.0, 0.2, 0.02 and 0.002 μg/ml for single peptides. The donor response was determined using T cell proliferation data as described in Example 3.
Relative magnitude value for a peptide or a peptide combination was calculated as percentage of highest T cell response to an allergen or a mix, by the same donor. In this way, allergen or peptide combination with highest magnitude of T cell response gets a value of 100 and T cell response magnitude of remaining peptides/peptide combinations are normalized or calculated relative to 100, for example Relative magnitude=100*(T cell response magnitude of peptide or combination/Highest T cell response in a donor). Relative magnitude were calculated mainly on Phl p 1. For donors non reactive to Phl p 1, Phl p 5 was used as reference
The donors were selected by seeking to maximize the HLA class II diversity in the donor cohort.
For peptide combinations, two set-ups were used:
A) Concentrations of 2.0, 0.1, 0.005 and 0.00025 μg/ml were tested on a set of T cell lines derived from 9 grass pollen allergic donors (same experiment as the data shown in FIG. 7b.).
B) Concentrations of 2.0, 0.066, 0.0022 and 0.00007 μg/ml were used on a set of T cell lines derived from 18 grass pollen allergic donors (same set as the donors used for testing of single peptides as described above).
Relative magnitude value for a peptide or a peptide combination was calculated as percentage of highest T cell response to an allergen or a mix, by the same donor. In this way, allergen or peptide combination with highest magnitude of T cell response gets a value of 100 and T cell response magnitude of remaining peptides/peptide combinations are normalized or calculated relative to 100, for example Relative magnitude=100*(T cell response magnitude of peptide or combination/Highest T cell response in a donor). […]

[2] = test system: allergen specific T cells; assay: T cell proliferation assay (72 h) on donor derived T cell lines (TCL02/TCL03); assay type: cell-based, human; conditions: reference peptides of WO2010/089554, proliferation only
Outline: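 CD8-depleted PBMCs from grass-allergic donors stimulated with natural grass allergen mix (nPhl p 1 0.5 μg/ml) to raise T cell lines; restimulated with irradiated APCs, allergens or PHA-P (0.5 μg/ml) plus rIL-2. Proliferation to overlapping 20-mer and selected 15-mer grass peptides tested with TCL02 (day 24) or TCL03 (day 34).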

CC[C@H](C)[C@H](NC(=O)[C@H](C)NC(=O)[C@H](CCCCN)NC(=O)[C@@H](NC(=O)[C@H](CC(C)C)NC(=O)[C@H](C)NC(=O)[C@H](C)NC(=O)[C@H](CCC(=O)O)NC(=O)[C@H](Cc1ccccc1)NC(=O)[C@@H](NC(=O)[C@H](C)NC(=O)[C@H](Cc1ccc(O)cc1)NC(=O)[C@H](CCCCN)NC(=O)[C@@H](NC(=O)[C@H](CCC(=O)O)NC(=O)[C@@H]1CCCN1C(=O)[C@@H](N)CCCCN)C(C)C)C(C)C)[C@@H](C)O)C(=O)N[C@H](C(=O)O)[C@@H](C)O [peptide 142] was tested, and the “donor coverage, dose response of single peptides” value ([1]; 0.002 μg/ml, 25 donor derived T cell lines) was ~35%, the “average relative magnitude calculated over all donors” value ([1]; single peptides, FIG. 21) was “in the same range” and the average relative magnitude [2] was “around 8”.
